The results in this text go back to PubChem BioAssay (NCI).

Values joined by “and” are separate entries in the source; they are usually repeats but may differ in a detail not shown here. Identical values can stand only once.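 In this assay, cells in 96-well plates receive the compound at five concentrations for 48 hours. Endpoints are linearly interpolated between the surrounding concentrations. GI50: concentration for 50% inhibition of growth. The concentration for full growth arrest is given as TGI.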

Some test systems named below: NCI/ADR-RES ovarian; EKVX NSCLC; M14 melanoma; PC-3 prostate; CCRF-CEM leukemia; A549 NSCLC; BT-549 breast; MDA-MB-231 breast; NCI-H23 lung; MOLT-4 leukemia.
Holding throughout (experiment): NCI anticancer screen, dose series, 48 h

For `NNc1c(C(N)=O)c2c(N)ncnc2n1C1OC(CO)C(O)C1O` (configuration not stated), the GI50 is 17.9 nM and 37.4 nM in the experiment on NCI/ADR-RES ovarian; 208 nM with EKVX NSCLC; < 12.7 nM and 18.8 nM with M14 melanoma; 22.4 nM and 46.4 nM in the experiment with PC-3 prostate; less than 0.0146 µM with CCRF-CEM leukemia; 33.6 nM and 92.4 nM with A549 NSCLC. In addition, the GI50 was 35.5 nM and 40.7 nM in the experiment with BT-549 breast; 86 nM in the experiment on MDA-MB-231 breast; 26.8 nM and 50.7 nM in the experiment with NCI-H23 lung; 23.2 nM and 96.4 nM in the experiment on MOLT-4 leukemia. In addition, the TGI was 0.289 µM and 0.754 µM with NCI/ADR-RES ovarian; 0.841 µM and 4.36 µM with EKVX NSCLC; 0.0498 µM and 0.162 µM with M14 melanoma; 0.22 µM and 0.304 µM in the experiment with PC-3 prostate; < 0.0483 µM and 0.12 µM with CCRF-CEM leukemia; 12.7 µM and 3.44 µM in the experiment on A549 NSCLC. Moreover, the TGI in the experiment on BT-549 breast was 0.624 µM and 0.672 µM; with MDA-MB-231 breast, 0.491 µM and 2.23 µM; in the experiment with NCI-H23 lung, 0.266 µM and 0.319 µM; in the experiment on MOLT-4 leukemia, 0.103 µM and 0.495 µM.

For `CCCCCCCCCCCC/C=C\CC[C@@H](O)[C@H](O)CC[C@H](O)[C@@H]1CC[C@@H](CCCCCCCC2=C[C@H](C)OC2=O)O1`, the GI50 is 7190 nM in the experiment on NCI/ADR-RES ovarian; 11600 nM in the experiment on EKVX NSCLC; 2220 nM in the experiment with PC-3 prostate; 6.82 µM in the experiment on CCRF-CEM leukemia; 3360 nM in the experiment with A549 NSCLC; 12800 nM in the experiment on BT-549 breast. In addition, the GI50 with MDA-MB-231 breast is 12400 nM; with NCI-H23 lung it was 2190 nM; in the experiment on MOLT-4 leukemia it was 1720 nM. Also, the TGI is 27.8 µM in the experiment with NCI/ADR-RES ovarian; 28.9 µM with EKVX NSCLC; 46.8 µM in the experiment on M14 melanoma; 16.5 µM with PC-3 prostate; more than 100 µM in the experiment with CCRF-CEM leukemia; 23 µM in the experiment on A549 NSCLC. For the same molecule, the values for the TGI in the experiment on MDA-MB-231 breast, in the experiment with NCI-H23 lung and with MOLT-4 leukemia were 35.3 µM, 29.9 µM and 4.88 µM, respectively.

For `CNC(=O)CCN1CCN(CC/C=C2\c3ccccc3Sc3ccc(Cl)cc32)CC1`, the GI50 was 7080 nM with NCI/ADR-RES ovarian; 14500 nM with EKVX NSCLC; 2100 nM in the experiment with M14 melanoma; 9070 nM in the experiment on PC-3 prostate; 6.31 µM with CCRF-CEM leukemia; 10700 nM in the experiment with A549 NSCLC. Besides, the GI50 is 10700 nM in the experiment with BT-549 breast, 10600 nM with MDA-MB-231 breast, 14400 nM in the experiment with NCI-H23 lung and 6560 nM in the experiment with MOLT-4 leukemia. For the same molecule, the TGI with NCI/ADR-RES ovarian was 16.5 µM; in the experiment on EKVX NSCLC, 30.6 µM; in the experiment with M14 melanoma, 4.4 µM; in the experiment on PC-3 prostate, more than 45 µM; in the experiment on CCRF-CEM leukemia, 44.8 µM; with A549 NSCLC, 28.5 µM. Further, the TGI was 24 µM in the experiment on BT-549 breast, 24.7 µM in the experiment with MDA-MB-231 breast, 32.5 µM with NCI-H23 lung and more than 34.1 µM in the experiment with MOLT-4 leukemia.

On to `Cc1cc(N2CCC(N3CCCC3)CC2)nc(/N=C(\N)Nc2ccc(Cl)c(Cl)c2)n1`, for which the GI50 was 2580 nM with NCI/ADR-RES ovarian; 1710 nM in the experiment with EKVX NSCLC; 1810 nM in the experiment on M14 melanoma; 2650 nM with PC-3 prostate; 3.28 µM in the experiment with CCRF-CEM leukemia; 1780 nM in the experiment on A549 NSCLC. Also, the GI50 is 2440 nM with BT-549 breast, 1670 nM in the experiment with MDA-MB-231 breast, 2120 nM in the experiment with NCI-H23 lung and 3320 nM in the experiment with MOLT-4 leukemia. Moreover, the TGI in the experiment with NCI/ADR-RES ovarian is 7.66 µM; in the experiment with EKVX NSCLC it was 4.4 µM; with M14 melanoma, 3.67 µM; with PC-3 prostate, 8.26 µM; in the experiment on CCRF-CEM leukemia, more than 100 µM; in the experiment with A549 NSCLC, 3.42 µM. In addition, the TGI is 6.37 µM in the experiment with BT-549 breast, 3.64 µM in the experiment on MDA-MB-231 breast, 6.61 µM in the experiment with NCI-H23 lung and more than 100 µM with MOLT-4 leukemia.

For the molecule `[O]=[Sn]([CH]1CCCCC1)[CH]1CCCCC1`, the GI50 with NCI/ADR-RES ovarian is 357 nM; in the experiment on EKVX NSCLC, 225 nM; with M14 melanoma, 239 nM; in the experiment on PC-3 prostate, 517 nM; in the experiment with CCRF-CEM leukemia, 0.0488 µM; in the experiment on A549 NSCLC it was 1400 nM. Also, the GI50 was 229 nM in the experiment with BT-549 breast, 280 nM in the experiment with MDA-MB-231 breast, 198 nM with NCI-H23 lung and 273 nM in the experiment on MOLT-4 leukemia. Moreover, the TGI in the experiment with NCI/ADR-RES ovarian was 1.63 µM; with EKVX NSCLC it was 1.2 µM; in the experiment with M14 melanoma, 0.677 µM; in the experiment on PC-3 prostate, 1.94 µM; in the experiment on CCRF-CEM leukemia it was 0.774 µM; in the experiment on A549 NSCLC, 2.89 µM. The TGI with BT-549 breast is 0.588 µM; in the experiment on MDA-MB-231 breast, 1.04 µM; in the experiment with NCI-H23 lung, 0.591 µM.

As to `CC[C@H](C)[C@H](NC(=O)C12C3C4C1C1C2C3C41NC)C(=O)N(C)[C@H](C[C@@H](OC(C)=O)c1nc(C(=O)N[C@@H](Cc2ccccc2)C[C@H](C)C(=O)OC)cs1)C(C)C` (some centres not stated), the GI50 with NCI/ADR-RES ovarian was 8150 nM; with EKVX NSCLC it was 1670 nM; in the experiment with M14 melanoma, 420 nM; in the experiment on PC-3 prostate, 645 nM; in the experiment on CCRF-CEM leukemia, 0.445 µM; in the experiment on A549 NSCLC, 4610 nM. Moreover, the GI50 in the experiment on BT-549 breast is 214 nM; in the experiment with MDA-MB-231 breast, 798 nM; in the experiment with NCI-H23 lung, 705 nM; in the experiment on MOLT-4 leukemia, 713 nM. The TGI in the experiment with NCI/ADR-RES ovarian was more than 14.3 µM; with EKVX NSCLC it was more than 14.3 µM; in the experiment on M14 melanoma it was 5.54 µM; in the experiment on PC-3 prostate, more than 14.3 µM; in the experiment with CCRF-CEM leukemia, more than 14.3 µM; with A549 NSCLC, more than 14.3 µM. Also, the TGI in the experiment on BT-549 breast is 3.51 µM; in the experiment on MDA-MB-231 breast it was more than 13 µM; with NCI-H23 lung, more than 14.3 µM; in the experiment with MOLT-4 leukemia it was more than 14.3 µM.

For `C=C1OC2OC(C)C(NC(=O)OCC(Cl)(Cl)Cl)C(OC(C)=O)C2O1` (configuration not stated), the TGI with NCI/ADR-RES ovarian, in the experiment with EKVX NSCLC, with M14 melanoma, with PC-3 prostate, in the experiment on CCRF-CEM leukemia and with A549 NSCLC was more than 100 µM throughout. Besides, the TGI with BT-549 breast, in the experiment with MDA-MB-231 breast, with NCI-H23 lung and in the experiment on MOLT-4 leukemia was more than 100 µM each time.
